Earlier results on two compounds are cited in patent US20230149379A1, “COMBINATION THERAPY FOR ACUTE MYELOID LEUKEMIA” (Celgene Corporation, priority 2020, published 2023).

One data set deals with R/R AML. To be noted: stepwise dosing.
Another data set has as its system AML at relapse. To be noted: administered alone.

On to `CC1(C)CCC(CN2CCN(c3ccc(C(=O)NS(=O)(=O)c4ccc(NCC5CCOCC5)c([N+](=O)[O-])c4)c(Oc4cnc5[nH]ccc5c4)c3)CC2)=C(c2ccc(Cl)cc2)C1` [Venetoclax, 4-[4-[[2-(4-chlorophenyl)-4,4-dimethylcyclohexen-1-yl]methyl]piperazin-1-yl]-N-[3-nitro-4-(oxanylmethylamino)phenyl]sulfonyl-2-(1H-pyrrolo[2,3-b]pyridin-5-yloxy)benzamide], for which the tumor lysis syndrome result in the data set on R/R AML is reported as “did not occur”.

Consider “CT-011: anti-PD-1 antibody, a humanized antibody”, for which the “response in treating AML at relapse” value in the data set on AML at relapse is “failed to show response”.
